Here are results for five compounds from patent publication US7189748B2, “Compounds and methods for treating insulin resistance and cardiomyopathy” (Forbes Medi-Tech (Research), Inc., priority 2004, dated 2007).

Experiment [1] concerns SPT. To be noted: literature statement; cited from earlier work.
In a further experiment the test system is Rat pancreatic islets. The experiment can be described thus: Protection of islets from fatty acid (palmitate) induced apoptosis, propidium iodide flow cytometry. Type of experiment: cell-based. To be noted: 3 days; for % Apoptosis: Fatty Acid medium (1 millimolar sodium palmitate), Control medium 2.40, Fatty Acid medium 17.60. On the procedure:
Islet protection by an exemplary compound was evaluated in an assay according to Eitel, K, et al (2002), and results obtained in this assay are reported below in Table 4. Rat pancreatic islets were cultured with control medium (RPMI 1640 supplemented with 10% fetal bovine serum, antibiotics and made […]) or in medium supplemented with 1 millimolar sodium palmitate (Fatty Acid Medium) during a period of 3 days. The culture medium was changed after 2 days to an identical composition culture medium with fresh inhibitor in the appropriate wells. Cells were stained with propidium iodide (PI), washed and propidium staining of cells (as a measure of cellular DNA content) was assessed by flow cytometry. The percentage of cells having less than the normal amount of PI staining was considered to be apoptotic cells (Eitel, K, et al. (2002)).
On the technique in general: Flow cytometry measures light scatter and fluorescence of single cells or particles in a stream.

Experiment [2] concerns the target T1, SPT (Homo sapiens, UniProt O15269+O15270).
T1 construct: endogenous in cells
T1 sequence (O15269 1-473): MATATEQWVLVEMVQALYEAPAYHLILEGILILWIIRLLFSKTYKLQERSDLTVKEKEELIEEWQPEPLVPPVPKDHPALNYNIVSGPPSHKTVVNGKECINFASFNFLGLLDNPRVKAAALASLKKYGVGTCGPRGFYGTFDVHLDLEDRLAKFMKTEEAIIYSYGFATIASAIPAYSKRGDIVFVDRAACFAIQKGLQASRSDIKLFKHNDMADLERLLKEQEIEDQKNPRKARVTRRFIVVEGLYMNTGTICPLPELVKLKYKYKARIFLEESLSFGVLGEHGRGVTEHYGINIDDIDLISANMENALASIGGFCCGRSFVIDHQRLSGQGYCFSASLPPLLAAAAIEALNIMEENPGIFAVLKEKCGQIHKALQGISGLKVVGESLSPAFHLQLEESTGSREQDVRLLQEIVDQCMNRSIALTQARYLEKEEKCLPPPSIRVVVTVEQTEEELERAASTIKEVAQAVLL
T1 sequence (O15270 1-562): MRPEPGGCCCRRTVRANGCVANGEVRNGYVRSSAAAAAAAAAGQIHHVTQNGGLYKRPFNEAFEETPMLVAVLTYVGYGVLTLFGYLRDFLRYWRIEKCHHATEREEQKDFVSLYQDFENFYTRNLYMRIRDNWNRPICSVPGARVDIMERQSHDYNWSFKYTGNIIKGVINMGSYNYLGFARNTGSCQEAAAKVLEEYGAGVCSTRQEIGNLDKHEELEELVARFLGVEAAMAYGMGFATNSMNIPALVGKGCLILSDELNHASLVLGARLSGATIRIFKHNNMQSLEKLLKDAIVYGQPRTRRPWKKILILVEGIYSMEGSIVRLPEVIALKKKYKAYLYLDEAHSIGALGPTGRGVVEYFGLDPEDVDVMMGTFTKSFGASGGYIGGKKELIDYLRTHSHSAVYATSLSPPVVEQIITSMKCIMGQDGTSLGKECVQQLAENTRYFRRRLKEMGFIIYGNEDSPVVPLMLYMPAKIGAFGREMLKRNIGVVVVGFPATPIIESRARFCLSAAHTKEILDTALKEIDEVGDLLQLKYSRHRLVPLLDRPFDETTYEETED
T1 sequence (Q969W0 1-71 partner): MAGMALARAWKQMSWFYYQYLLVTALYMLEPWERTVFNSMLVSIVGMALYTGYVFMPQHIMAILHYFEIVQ
The experiment can be described thus: Serine palmitoyltransferase activity, Assay C ([3H]serine incorporation into lipids, cell homogenate). It counts as biochemical. To be noted: for inhibition of SPT (in words): Assay C, at the doses of Table 2. On the procedure:
An alternative assay for evaluating inhibition of SPT, the enzyme present in commonly cultured cells, is performed with CHO cells or a human cell line. Cells are washed three times with ice-cold phosphate-buffered saline (PBS). A total of 0.5 mL of lysis buffer [50 mM Hepes (pH 8.0) containing 5 mM ethylenediaminetetraacetic acid (EDTA) and 5 mM dithiothreitol (DTT)] is added to each dish. The cells are scraped using a rubber policeman, and are then transferred to a test tube on ice. The cell suspension is sonicated three times for 5 s at 1–2 min intervals on ice. Protein concentrations in cell homogenates are measured using a Bradford protein assay kit (Bio-Rad). To measure the SPT activity, 0.1 mL of cell homogenates are added to 0.1 mL of reaction buffer [20 mM Hepes (pH 8.0) containing 5 mM EDTA, 10 mM DTT, 50 μM pyridoxal-5′-phosphate, 0.4 mM palmitoyl CoA, 2 mM L-serine, 10 μCi of [^3H]serine, and test compound or standard inhibitor (myriocin). After incubation at 37° C. for 20 min with shaking, the reaction is terminated with 0.5 mL of 0.5 N NH4OH containing 10 mM L-serine. The lipid products are extracted using the solvent system: 3 mL of chloroform/methanol (1:2), 25 μg of sphingosine (1 mg/mL in ethanol) as a carrier, 2 mL of chloroform, and 3.8 mL of 0.5 N NH4OH. After vigorous mixing, the phases are separated by centrifugation at 2500 rpm for 5 min. The aqueous layer is removed by aspiration, and the lower chloroform layer is washed 3 times with 4.5 mL of water. The chloroform layer is transferred to a scintillation vial, and the solvent is evaporated under N2 gas. The radioactivity is measured with a LS6000TA liquid scintillation counter (Beckman). Nonspecific conversion of [^3H] serine to chloroform-soluble species is determined by performing the assay in the absence of palmitoyl CoA. The count of the background is about one-sixth of the count of 100% activity.
An alternative assay using a non-chlorinated solvent modification of the Blye and Dyer lipid extraction method reported in Smedes (Smedes, F., Analyst 124:1711–18 (1999)) was employed to evaluate exemplary compounds. In this approach, the cells were washed three times with ice-cold phosphate-buffered saline and 0.5 mL of lysis buffer was added to each dish. The cells were scraped using a rubber policeman and transfer to a test tube on ice. The cell suspension was sonicated three times for 5 s at 1–2 min intervals on ice. A 0.1 mL sample of cell homogenates were added to 0.1 mL of reaction buffer in a test tube containing the appropriate concentration of test substance and 10 μCi of [^3H] serine. The reaction mixture was incubated at 37° C. for 20 min with shaking, and the reaction was terminated with 0.5 mL of […] NH4OH stop solution containing 10 mM unlabeled L-serine. Total lipids are extracted by transferring the contents of the test tube into a 15 ml centrifuge tube containing: 4.5 mL of isopropanol/cyclohexane (4:5) containing 25 μg of sphingosine (1 mg/mL in ethanol and diluted into the isopropanol/cyclohexane mixture) as a carrier. The contents were mixed vigorously and 4 mL of 0.5 N NH4OH was added. The phases were separated by centrifugation at 2500 rpm for 5 min. An accurately measured portion of the organic layer (4.0 ml) was added to a scintillation vial with 1 ml of water. Ultima Gold F (5 ml) was added, the vial was vortexed and allowed to settle into separate layers. The amount of [^3H] serine radioactivity incorporated into lipids was quantified in a scintillation counter. Non-specific counts were determined by carrying out the assay with control samples containing no palmitoyl CoA.

A further experiment concerns beta cell apoptosis. To be noted: diabetic Zucker fatty rat model; cited from earlier work.
Setting [3] is: 1 nM, Table 2, No Inhibitor 4443/4483, no CoA blank 305.
Where [4] appears, read: 10 nM, Table 2, No Inhibitor 4443/4483, no CoA blank 305.

As to `CCCCCCCCc1ccc(CCC(N)(CO)C(=O)O)cc1` (stereo not shown) [Compound 2], the “activity against SPT (in words)” value in the experiment with SPT [1] is “did not exhibit activity against SPT”.
In the case of `CCCCCCCOc1ccc(CCC(N)(CO)C(=O)O)cc1` (stereo not shown) [Compound 12], the “% Apoptosis” value with Rat pancreatic islets came to 2.33%. Also, the “protection of cells from the fatty acid treatment (in words)” value with Rat pancreatic islets (rat islets, fatty acid medium) is reported as “fully protect cells”. Moreover, the Counts at SPT [2] (setting [3]) was determined as 4215; on SPT [2] (setting [4]), 4118; on SPT [2] (100 nM, Table 2, No Inhibitor 4443/4483, no CoA blank 305), 4258; on SPT [2] (1 μM, Table 2, No Inhibitor 4443/4483, no CoA blank 305) it was 4169; at SPT [2] (10 μM, Table 2, No Inhibitor 4443/4483, no CoA blank 305), 4608. In addition, the “inhibition of SPT (in words)” value against SPT [2] is given as “moderate activity”.
Take `CCCCCCCCc1ccc(CCC(N)(CO)CO)cc1` [FTY720]: the “activity against SPT (in words)” value in the experiment with SPT [1] was “do not inhibit SPT”.
For `CCCCCCC(=O)CCCCCC/C=C/C[C@@H](O)[C@H](O)[C@@](N)(CO)C(=O)O` [ISP, myriocin], in the experiment on Rat pancreatic islets, the “% Apoptosis” value is given as 14.65%. In addition, the Counts is listed as 2509 on SPT [2] (setting [3]); 535 on SPT [2] (setting [4]); 959 on SPT [2] (10 nM, Table 3, Control 5816, No Palm CoA 611). For the same compound, the “inhibition of SPT (in words)” value against SPT [2] is given as “potent but non-selective inhibition of SPT”.
As to `N[C@@H]1CON=C1O` [cycloserine], the “partial beta cell protective effect” value with beta cell apoptosis is approximately 50 % activity.
